Test results as given in US9738848B2, “Polyfunctional lubricant composition” (priority 2013, dated 2017).

What was measured:
Rainbow trout = conditions: cited from earlier work
[1] = test system: Larval medaka (Oryzias latipes); conditions: cited from earlier work
[2] = Hydrolyzability test (acid value after storage with water); type: physicochemical; conditions: 1 mass percent water, 60° C.
Experimental: 1 Mass percent of water was added to phosphorus compounds and the mixture was stored in a thermostat at 60° C. The compounds were evaluated for hydrolyzability by measuring an acid value at each number of days elapsed.

| Compound | Rainbow trout acute toxicity 96h-LC50 (Rainbow trout) | Larval medaka (Oryzias latipes) acute toxicity 96h-LC50 [1] | Hydrolyzability (acid value over days elapsed) [2] |
| --- | --- | --- | --- |
| Triisopropyl phenyl phosphate | 1.6 mg/L | >100 mg/L |  |
| Tricresyl phosphate |  | 0.84 mg/L |  |
| O=P(Oc1ccccc1)(Oc1ccccc1)Oc1ccccc1 [Triphenyl phosphate] |  | 1.3 mg/L | high hydrolyzability |
